Results taken from patent publication EP0752872B1, “NADH OXIDASE AS A TARGET IN DIAGNOSIS AND THERAPY” (Morré, D. James, priority 1994, dated 1995).

Key:
[1] = test system: plasma membrane NADH oxidase; conditions: addition at 0.1 µM; normal rat liver plasma membrane vesicles; no addition 0.72 ± 0.06; cited from earlier work
HL-60 cells [2] = assay: Ascorbate radical assay of electron flow released from cells; type: cell-based, human; conditions: 0.2 mM ascorbate
Description: Of particular interest is employing an electron acceptor in the assay for NADH oxidase, conveniently ascorbate radical, where one may follow the rate of disappearance of the ascorbate radical under the conditions of the assay. One can measure the reduction of ascorbate free radical at 265 nm employing a spectrophotometer as described by Winkler (1987) Biochim. et Biophys. Acta 925:258-264. One may use intact cells suspended in a convenient buffer medium containing ascorbate, incubating the cell suspension and then following the reduction of the ascorbate as described above. See, also, Alcain et al. (1991) Biochim. et Biophys. Acta 1073:380-385 and Navas et al. (1992) FEBS Letters 299:223-226.
Under these conditions, electron flow is inhibited by adriamycin at concentrations where growth is inhibited in adriamycin susceptible HL-60 cells, but not inhibited with adriamycin-resistant cells, where growth also is not inhibited. These inhibitions with susceptible cells were observed without perceptible lag. Also the response was observed without preincubation with adriamycin.

HL-60 cells [3] = assay: Growth of HL-60 cells in suspension; type: cell-based, human
[4] = test system: NADH oxidase activity of serum; assay: NADH oxidation by rat serum samples; type: biochemical; conditions: +0.25 µM adriamycin
Description: (§1) Spectrophometric assay of NADH oxidase. NADH oxidase activity was determined as the disappearance of NADH measured at 340 nm in a reaction mixture containing 25 mM Tris-MES buffer (pH 7.2), 1 mM KCN to inhibit the low levels of contaminating mitochondrial oxidase activity, and 150 µM NADH at 37°C with constant stirring. Activity was measured using a Hitachi U3210 spectrophotometer with continuous recording over two intervals of 5 min each. A millimolar extinction coefficient of 6.22 was used to determine specific activity.

[5] = test system: NADH oxidase activity of plasma membranes of HL-60 cells; assay: NADH oxidase assay, HL-60 plasma membranes; type: biochemical, human
Description: as §1

[6] = test system: circulating NADH oxidase in the serum; assay: NADH oxidase activity of human serum; type: biochemical; conditions: adriamycin
Description: as §1

[7] = test system: FIV-infected Crandall feline leukemia cells; assay: Growth of FIV-infected cells; type: cell-based; conditions: Felis catus, read-out: concentration inhibiting growth
Description: (§2) The antisera were conjugated to adriamycin through an activated carboxyl of the antibody to the amine of adriamycin free base using 2-isobutoxyl-1-isobutoxycarbonyl-1,2-dihydroxyquinoline, where the antibody was bound to an Ag-BSA sepharose affinity column. The concentration of drug conjugated was determined spectroscopically and was tested initially at a concentration of 0.2 µM on the growth of FIV-infected and -uninfected Crandall feline leukemia cells.

[8] = test system: plasma membrane NADH oxidase; assay: Spectrophotometric NADH oxidase assay, rat liver plasma membranes (normal cells); type: biochemical
Description: Purification of plasma membranes from rat liver. A 5000 x g pellet from the preparation of Golgi apparatus (Morré (1971) Meth. Enzymol. 22, 130-148) was the starting material. The fluffy layer which contains the Golgi apparatus fraction was mixed, withdrawn and excluded from the plasma membrane preparations. Cold 1 mM NaHCO3 (5 ml) was added to each tube and the friable yellow-brown upper part of the pellet was resuspended with a pen-brush, leaving the reddish tightly packed bottom part of the pellet undisturbed. The resuspended material was homogenized in aliquots of 5 ml each in a 30 ml stainless steel homogenizer (Duragrind) 20 times by hand. The homogenates were combined, diluted with cold 1 mM NaHCO3 (1:1 dilution), and centrifuged at 6000 x g in a HB rotor for 15 min. The supernatant was discarded and the pellet was used for the two-phase separation (Morré & Morré (1989) BioTechniques 7:946-958).
The two-phase system contained 6.4% (w/w) Dextran T-500 (Pharmacia), 6.4% (w/w) polyethylene glycol) 3350 (Fisher), and 5 mM potassium phosphate buffer (pH 7.2) (Morré & Morré, 1989, supra). The homogenate (1 g) was added to the two-phase system and the weight of the system was brought to 8 g with distilled water. The tubes were inverted vigorously for 40 times in the cold (4°C). The phases were separated by centrifugation at 750 rpm (150 x g) in a Sorvall HB 4 rotor for 5 min. The upper phases were carefully withdrawn with a pasteur pipette, divided in half and transferred into 40 ml plastic centrifuge tubes and diluted with cold 1 mM NaHCO3. The purified plasma membranes were collected by centrifugation at 10,000 x g in a HB rotor for 30 min. Plasma membrane pellets were resuspended in 50 mM Tris-Mes buffer (pH 7.2) and stored at -70°C. Proteins were determined using the bicinchoninic acid (BCA) assay (Smith et al. (1985) Anal. Biochem. […]: 76-85) with bovine serum albumin as standard.
as §1

[9] = molecular target: T1, plasma membrane NADH oxidase activity from RLT-N hepatoma (Rattus norvegicus, UniProt D3Z9Z5); assay: Spectrophotometric NADH oxidase assay, rat hepatoma plasma membranes; type: biochemical
T1 sequence (D3Z9Z5 1-606): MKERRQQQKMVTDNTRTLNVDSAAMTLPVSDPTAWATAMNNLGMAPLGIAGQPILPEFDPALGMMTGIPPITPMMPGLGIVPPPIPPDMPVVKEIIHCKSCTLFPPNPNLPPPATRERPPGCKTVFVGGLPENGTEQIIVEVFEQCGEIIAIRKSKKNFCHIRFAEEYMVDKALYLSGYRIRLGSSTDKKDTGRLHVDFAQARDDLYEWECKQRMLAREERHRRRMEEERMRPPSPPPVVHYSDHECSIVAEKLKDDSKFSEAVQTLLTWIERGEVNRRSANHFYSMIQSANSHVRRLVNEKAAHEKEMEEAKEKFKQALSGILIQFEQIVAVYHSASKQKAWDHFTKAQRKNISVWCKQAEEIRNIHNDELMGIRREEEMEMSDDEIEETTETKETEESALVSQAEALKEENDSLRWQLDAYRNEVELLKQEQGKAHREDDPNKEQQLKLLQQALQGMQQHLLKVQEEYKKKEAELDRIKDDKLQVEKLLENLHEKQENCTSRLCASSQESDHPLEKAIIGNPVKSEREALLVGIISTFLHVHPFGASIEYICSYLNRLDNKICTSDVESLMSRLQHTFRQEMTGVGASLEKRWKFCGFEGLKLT
Description: as §1

[10] = test system: uninfected Crandall feline leukemia cells; assay: Growth of uninfected cells; type: cell-based; conditions: Felis catus; normal cells; read-out: concentration inhibiting growth
Description: as §2

[11] = molecular target: T2, NADH oxidase from HeLa cell plasma membranes (Homo sapiens, UniProt Q16206); assay: Spectrophotometric NADH oxidase assay, HeLa plasma membranes; type: biochemical; conditions: HeLa plasma membranes
T2 sequence (Q16206 1-610): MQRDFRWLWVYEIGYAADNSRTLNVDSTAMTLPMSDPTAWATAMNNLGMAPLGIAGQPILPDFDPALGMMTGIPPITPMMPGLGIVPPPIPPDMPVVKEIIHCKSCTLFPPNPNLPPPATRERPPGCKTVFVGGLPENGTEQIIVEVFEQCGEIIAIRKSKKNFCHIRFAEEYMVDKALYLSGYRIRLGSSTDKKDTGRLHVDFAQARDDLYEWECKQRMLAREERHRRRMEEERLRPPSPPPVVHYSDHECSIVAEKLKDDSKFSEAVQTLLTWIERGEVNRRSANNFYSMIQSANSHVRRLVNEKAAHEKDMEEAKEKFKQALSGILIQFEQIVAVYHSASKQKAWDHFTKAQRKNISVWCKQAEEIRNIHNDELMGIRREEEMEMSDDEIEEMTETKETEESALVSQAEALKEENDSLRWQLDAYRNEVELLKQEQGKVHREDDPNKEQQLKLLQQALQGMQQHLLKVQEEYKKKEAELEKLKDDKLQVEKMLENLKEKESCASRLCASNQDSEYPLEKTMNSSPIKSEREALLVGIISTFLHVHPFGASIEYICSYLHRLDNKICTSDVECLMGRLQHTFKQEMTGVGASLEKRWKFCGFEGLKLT
Description: Purification of plasma membranes from HeLa cells. HeLa cells were grown as suspension cultures in minimum essential medium (MEM) supplemented with horse serum, diferric transferrin and heparin. Cells were collected by centrifugation for 6 to 15 min at 1,000 to 3,000 rpm. The cell pellets were resuspended in 0.2 mM EDTA in 1 mM NaHCO3 in an approximate ratio of 1 ml per 10^8 cells and incubated on ice for 10 to 30 min to swell the cells. Homogenization was with a Polytron Homogenizer for 30 to 40 sec at 10,500 rpm using a PT-PA 3012/23 or ST-probe in 7 to 8 ml aliquots. To estimate breakage, the cells are monitored by light microscopy before and after homogenization. […]
The homogenates were centrifuged for 10 min at 1,000 rpm (175 g) to remove unbroken cells and nuclei and the supernatant was centrifuged a second time at 1.4 x 10^6 g min (e.g. 1 h at 23,500 g) to prepare a plasma membrane enriched microsome fraction. […] The purity of the plasma membrane was determined to be > 90% by electron microscope morphometry. […]
Spectrophometric assay of NADH oxidase. NADH oxidase activity was determined as the disappearance of NADH measured at 340 nm in a reaction mixture containing 25 mM Tris-MES buffer (pH 7.2), 1 mM KCN to inhibit the low levels of contaminating mitochondrial oxidase activity, and 150 µM NADH at 37°C with constant stirring. […]

With `C=C1/C(=C\C=C2/CCC[C@]3(C)[C@@H]([C@H](C)CCCC(C)(C)O)CC[C@@H]23)C[C@@H](O)C[C@@H]1O` [Calcitrol] as the compound, how does the NADH oxidase [1] read?
Its NADH oxidase is 0.16 ± 0.04 nmoles/min/mg protein.

Which “inhibition of electron flow (in words)” value (HL-60 cells [2]; adriamycin susceptible HL-60 cells) does the source give for `COc1cccc2c1C(=O)c1c(O)c3c(c(O)c1C2=O)C[C@@](O)(C(=O)CO)C[C@@H]3O[C@H]1C[C@H](N)[C@H](O)[C@H](C)O1` [adriamycin] here?
The value was “inhibited”.

And the “inhibition of electron flow (in words)” value (HL-60 cells [2]; adriamycin-resistant cells)?
Its value is “not inhibited”.

And the “inhibition of growth (in words)” value (HL-60 cells [3]; HL-60 cells, adriamycin susceptible, not differentiated)?
The value was “inhibited”.

What about the “inhibition of growth (in words)” value (HL-60 cells [3]; adriamycin-resistant cells) of the same compound?
The value was “not inhibited”.

And the “Relative rates of NADH oxidation” value ([4]; serum from normal rats, no adriamycin 1.7 ± 0.1)?
The value was 1.75 ± 0.05.

And the “Relative rates of NADH oxidation” value ([4]; serum from rats bearing an RLT-28 tumor, no adriamycin 1.0 ± 0.1)?
Its value is 0.35 ± 0.05.

What about the “inhibition of NADH oxidase activity (in words)” value ([5]; adriamycin-resistant HL-60 cells) of the same compound?
The value was “not inhibited”.

What about the “inhibition of NADH oxidase activity (in words)” value ([5]; normal, adriamycin-susceptible HL-60 cells) of the same compound?
Its value is “inhibited”.

What about the “effect on change in absorbance (in words)” value ([6]; sera from 12 normal individuals) of the same compound?
Its value is “consistently stimulated”.

And the “effect on activity (in words)” value ([6]; sera from the 18 cancer patients)?
Its value is “inhibited with 17 of the samples and unchanged in one”.

And the minimal effective concentration [7]?
Its minimal effective concentration is ≥ 10 µM.

What about the “inhibition of growth factor-stimulated NADH oxidase activity” value ([8]; 0.1 µM adriamycin, activity stimulated by epidermal growth factor (EGF)) of the same compound?
Its value is “inhibited completely”.

What about the “inhibition of NADH oxidase activity” value ([8]; 0.1 µM adriamycin, liver plasma membranes) of the same compound?
Its value is “uninhibited”.

What about the IC50 ([8]; plasma membranes from rat liver, normal cells, read-out: ED50 for inhibition of NADH oxidase activity) of the same compound?
The IC50 was ~7 µM.

What about the inhibition at 0.1 µM ([9]; 0.1 µM adriamycin, hepatoma plasma membranes) of the same compound?
Its inhibition at 0.1 µM is 40%.

What about the minimal effective concentration [10] of the same compound?
Its minimal effective concentration is ≥ 10 µM.

With `CCCCCCCCCC[C@H](O)[C@H]1CC[C@H]([C@H]2CC[C@H]([C@H](O)CCCCCCCCCC[C@@H](O)CC3=C[C@H](C)OC3=O)O2)O1` [bullatacin] as the compound, how does the “inhibition of NADH oxidase activity (in words)” value [11] read?
The value was “inhibition”.

Which “inhibition of NADH oxidase activity (in words)” value ([9]; final concentration of 0.4 µM prepared in DMSO, equivalent DMSO without effect) does the source give for simalikalactone D [similikalactone D] here?
Its value is “inhibited”.
